In ChEMBL document CHEMBL2073750, “Differential interaction of 3-hydroxy-3-methylglutaryl-coa reductase inhibitors with ABCB1, ABCC2, and OATP1B1” (Drug Metab Dispos, 2005):

Experiments:
Format in all cases: functional, cell-based
[1] = molecular target: ATP-binding cassette sub-family C member 2 (Homo sapiens, UniProt Q92887); assay: TP_TRANSPORTER: inhibition of calcein-AM efflux in MRP2-expressing MDCK cells
[2] = molecular target: ATP-dependent translocase ABCB1 (Homo sapiens, UniProt P08183); assay: TP_TRANSPORTER: inhibition of calcein-AM efflux in MDR1-expressing MDCK cells
[3] = molecular target: T1, Solute carrier organic anion transporter family member 1B1 (Homo sapiens, UniProt Q9Y6L6); assay: TP_TRANSPORTER: inhibition of estradiol-17beta-glucuronide uptake(estradiol-17beta-glucuronide:0.02uM) in OATP1B1-expressing HEK293 cells
T1 sequence (Q9Y6L6 whole entry): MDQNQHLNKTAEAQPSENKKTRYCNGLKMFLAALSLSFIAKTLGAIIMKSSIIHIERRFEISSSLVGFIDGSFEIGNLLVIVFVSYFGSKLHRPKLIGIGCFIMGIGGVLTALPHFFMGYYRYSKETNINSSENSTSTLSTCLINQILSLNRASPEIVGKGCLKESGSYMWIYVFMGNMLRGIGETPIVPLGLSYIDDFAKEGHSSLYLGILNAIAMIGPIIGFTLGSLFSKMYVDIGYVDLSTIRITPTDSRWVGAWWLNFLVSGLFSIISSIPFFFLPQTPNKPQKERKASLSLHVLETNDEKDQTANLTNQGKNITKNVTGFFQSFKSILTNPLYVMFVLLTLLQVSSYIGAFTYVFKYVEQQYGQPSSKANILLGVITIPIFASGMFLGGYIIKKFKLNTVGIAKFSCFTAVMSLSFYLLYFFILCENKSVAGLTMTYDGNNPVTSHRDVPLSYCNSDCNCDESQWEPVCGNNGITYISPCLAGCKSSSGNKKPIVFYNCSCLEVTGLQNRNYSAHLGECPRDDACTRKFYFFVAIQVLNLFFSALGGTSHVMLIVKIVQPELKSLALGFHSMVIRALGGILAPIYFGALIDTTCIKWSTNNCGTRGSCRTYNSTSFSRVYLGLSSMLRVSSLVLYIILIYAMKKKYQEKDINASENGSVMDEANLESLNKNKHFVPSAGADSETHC

ATP-binding cassette sub-family C member 2, sequence (Q92887 whole entry): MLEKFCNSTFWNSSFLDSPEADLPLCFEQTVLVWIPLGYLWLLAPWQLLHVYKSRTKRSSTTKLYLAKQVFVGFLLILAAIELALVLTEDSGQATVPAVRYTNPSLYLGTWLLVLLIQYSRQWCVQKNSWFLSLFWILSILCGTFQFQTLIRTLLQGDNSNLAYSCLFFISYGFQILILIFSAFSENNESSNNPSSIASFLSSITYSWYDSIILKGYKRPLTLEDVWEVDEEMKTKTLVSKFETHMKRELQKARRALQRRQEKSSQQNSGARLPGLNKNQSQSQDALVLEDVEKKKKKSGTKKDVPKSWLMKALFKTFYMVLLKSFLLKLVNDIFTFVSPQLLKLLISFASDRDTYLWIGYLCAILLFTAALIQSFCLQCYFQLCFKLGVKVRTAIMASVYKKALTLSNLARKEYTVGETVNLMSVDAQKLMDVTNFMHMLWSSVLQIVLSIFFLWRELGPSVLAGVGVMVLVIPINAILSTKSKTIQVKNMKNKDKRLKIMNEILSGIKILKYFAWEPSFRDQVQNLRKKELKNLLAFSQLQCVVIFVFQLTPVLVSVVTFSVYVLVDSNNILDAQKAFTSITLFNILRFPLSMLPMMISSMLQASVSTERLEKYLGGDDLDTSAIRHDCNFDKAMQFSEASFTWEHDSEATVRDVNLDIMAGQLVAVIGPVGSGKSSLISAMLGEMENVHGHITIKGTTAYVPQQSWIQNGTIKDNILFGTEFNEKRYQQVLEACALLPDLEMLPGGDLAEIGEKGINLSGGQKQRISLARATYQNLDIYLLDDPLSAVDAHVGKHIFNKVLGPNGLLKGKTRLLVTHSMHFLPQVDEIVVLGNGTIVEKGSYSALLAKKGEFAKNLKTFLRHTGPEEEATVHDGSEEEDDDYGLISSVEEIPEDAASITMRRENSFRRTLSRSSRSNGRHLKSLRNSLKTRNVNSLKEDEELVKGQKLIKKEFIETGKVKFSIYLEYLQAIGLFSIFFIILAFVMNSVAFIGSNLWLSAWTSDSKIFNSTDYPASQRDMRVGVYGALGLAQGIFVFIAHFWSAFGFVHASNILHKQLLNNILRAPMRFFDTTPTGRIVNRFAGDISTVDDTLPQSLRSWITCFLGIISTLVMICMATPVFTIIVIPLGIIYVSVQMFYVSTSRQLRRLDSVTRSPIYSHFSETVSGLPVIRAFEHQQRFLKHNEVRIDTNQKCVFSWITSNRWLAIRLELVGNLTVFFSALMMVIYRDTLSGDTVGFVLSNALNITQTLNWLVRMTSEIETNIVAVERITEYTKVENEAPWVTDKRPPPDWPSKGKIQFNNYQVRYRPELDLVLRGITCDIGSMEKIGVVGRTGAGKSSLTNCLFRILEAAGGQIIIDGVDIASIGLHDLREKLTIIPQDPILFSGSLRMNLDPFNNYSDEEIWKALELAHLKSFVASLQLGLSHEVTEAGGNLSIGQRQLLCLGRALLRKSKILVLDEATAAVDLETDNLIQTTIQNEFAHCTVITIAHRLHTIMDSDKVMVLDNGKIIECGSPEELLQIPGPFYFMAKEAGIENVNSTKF
ATP-dependent translocase ABCB1, sequence (P08183 whole entry): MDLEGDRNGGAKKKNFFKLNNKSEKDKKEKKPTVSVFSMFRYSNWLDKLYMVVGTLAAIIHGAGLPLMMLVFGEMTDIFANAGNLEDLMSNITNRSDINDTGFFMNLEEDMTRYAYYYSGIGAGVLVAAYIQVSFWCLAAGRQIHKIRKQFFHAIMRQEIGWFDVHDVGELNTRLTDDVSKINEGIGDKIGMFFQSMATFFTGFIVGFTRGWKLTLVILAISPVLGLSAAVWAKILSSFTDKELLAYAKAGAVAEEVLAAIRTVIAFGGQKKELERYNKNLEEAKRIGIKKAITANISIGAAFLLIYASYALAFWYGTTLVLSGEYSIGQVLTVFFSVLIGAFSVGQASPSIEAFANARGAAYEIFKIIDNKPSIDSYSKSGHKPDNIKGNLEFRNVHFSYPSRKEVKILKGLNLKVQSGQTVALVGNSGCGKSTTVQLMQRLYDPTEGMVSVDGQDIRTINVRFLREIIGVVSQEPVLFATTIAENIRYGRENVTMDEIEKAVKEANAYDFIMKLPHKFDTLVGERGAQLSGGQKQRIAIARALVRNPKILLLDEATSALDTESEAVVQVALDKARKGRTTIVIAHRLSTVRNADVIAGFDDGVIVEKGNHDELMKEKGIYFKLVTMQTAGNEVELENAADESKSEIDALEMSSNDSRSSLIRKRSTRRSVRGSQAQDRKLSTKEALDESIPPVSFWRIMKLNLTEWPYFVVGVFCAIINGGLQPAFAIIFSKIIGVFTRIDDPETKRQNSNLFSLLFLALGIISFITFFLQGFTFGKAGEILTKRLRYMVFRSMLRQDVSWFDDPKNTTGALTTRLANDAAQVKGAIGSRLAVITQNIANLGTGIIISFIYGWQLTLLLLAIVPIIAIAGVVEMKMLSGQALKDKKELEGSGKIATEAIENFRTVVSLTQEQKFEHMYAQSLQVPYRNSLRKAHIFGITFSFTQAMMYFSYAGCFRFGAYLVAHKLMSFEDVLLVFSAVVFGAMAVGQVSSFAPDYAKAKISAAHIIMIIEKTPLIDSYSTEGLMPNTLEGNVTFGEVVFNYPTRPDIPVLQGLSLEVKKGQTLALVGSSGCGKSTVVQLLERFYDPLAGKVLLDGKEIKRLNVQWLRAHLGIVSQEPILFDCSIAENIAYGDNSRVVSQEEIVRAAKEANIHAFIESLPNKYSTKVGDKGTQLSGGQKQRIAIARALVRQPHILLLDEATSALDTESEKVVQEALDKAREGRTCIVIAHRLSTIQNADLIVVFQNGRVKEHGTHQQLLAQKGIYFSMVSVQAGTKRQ

SMILES | IC50 ([1]; mdck) | IC50 ([2]; mdck) | IC50 ([3]; read-out: IC50) | IC50 ([3]; hek293) | IC50 ([1]; read-out: IC50) | IC50 ([2]; read-out: IC50)
CO[C@H]1/C=C/O[C@@]2(C)Oc3c(C)c(O)c4c(O)c(cc(O)c4c3C2=O)NC(=O)/C(C)=C\C=C\[C@H](C)[C@H](O)[C@@H](C)[C@@H](O)[C@@H](C)[C@H](OC(C)=O)[C@@H]1C [RIFAMYCIN] | – | – | 0.23 µM | – | – | –
CC[C@H](C)C(=O)O[C@H]1C[C@@H](C)C=C2C=C[C@H](C)[C@H](CC[C@@H]3C[C@@H](O)CC(=O)O3)[C@H]21 [LOVASTATIN] | is not an inhibitor [IC50=-(>33uM)] | – | 28 µM | – | – | –
CCC(C)(C)C(=O)O[C@H]1C[C@@H](C)C=C2C=C[C@H](C)[C@H](CC[C@@H](O)C[C@@H](O)CC(=O)O)[C@H]21 [TENIVASTATIN] | is not an inhibitor [IC50=-(>100uM)] | is not an inhibitor [IC50=-(>100uM)] | 3.6 µM | – | – | –
CC[C@]1(O)C[C@@H]2CN(CCc3c([nH]c4ccccc34)[C@@](C(=O)OC)(c3cc4c(cc3OC)N(C)[C@H]3[C@@](O)(C(=O)OC)[C@H](OC(C)=O)[C@]5(CC)C=CCN6CC[C@]43[C@@H]65)C2)C1 [VINBLASTINE] | – | – | – | – | 21 µM | –

Further lines, results first:

IC50 ([1]; mdck) | IC50 ([2]; mdck) | IC50 ([3]; read-out: IC50) | IC50 ([3]; hek293) | IC50 ([1]; read-out: IC50) | IC50 ([2]; read-out: IC50) | SMILES
is not an inhibitor [IC50=-(>100uM)] | is not an inhibitor [IC50=-(>100uM)] | – | – | – | – | CC(C)c1c(C(=O)Nc2ccccc2)c(-c2ccccc2)c(-c2ccc(F)cc2)n1CC[C@@H](O)C[C@@H](O)CC(=O)O [ATORVASTATIN]
is not an inhibitor [IC50=-(>100uM)] | is not an inhibitor [IC50=-(>100uM)] | – | is not an inhibitor [IC50=-(>100uM)] | – | – | CC[C@H](C)C(=O)O[C@H]1C[C@H](O)C=C2C=C[C@H](C)[C@H](CC[C@@H](O)C[C@@H](O)CC(=O)O)[C@H]21 [PRAVASTATIN]
– | – | 2.6 µM | – | 15 µM | 14 µM | CC(C)c1c(C(=O)Nc2ccccc2)c(-c2ccccc2)c(-c2ccc(F)cc2)n1CC[C@@H]1C[C@@H](O)CC(=O)O1 [ATORVASTATIN LACTONE]
is not an inhibitor [IC50=-(>100uM)] | is not an inhibitor [IC50=-(>100uM)] | 4 µM | – | – | – | CC[C@H](C)C(=O)O[C@H]1C[C@@H](C)C=C2C=C[C@H](C)[C@H](CC[C@@H](O)C[C@@H](O)CC(=O)O)[C@H]21 [LOVASTATIN ACID]
